Data on three compounds can be found in patent US9023986B2, “Glucose-dependent insulinotropic peptide analogs” (Hoffmann-La Roche Inc., priority 2010, dated 2015).

Non-standard residues stand in square brackets, D forms with d. Residues, ends and D or L forms follow the SMILES beside them.

One data set has as its target T1, human GIPR (Homo sapiens, UniProt P48546).
T1 construct: host or cells: CHO-K1
T1 sequence (P48546 22-466): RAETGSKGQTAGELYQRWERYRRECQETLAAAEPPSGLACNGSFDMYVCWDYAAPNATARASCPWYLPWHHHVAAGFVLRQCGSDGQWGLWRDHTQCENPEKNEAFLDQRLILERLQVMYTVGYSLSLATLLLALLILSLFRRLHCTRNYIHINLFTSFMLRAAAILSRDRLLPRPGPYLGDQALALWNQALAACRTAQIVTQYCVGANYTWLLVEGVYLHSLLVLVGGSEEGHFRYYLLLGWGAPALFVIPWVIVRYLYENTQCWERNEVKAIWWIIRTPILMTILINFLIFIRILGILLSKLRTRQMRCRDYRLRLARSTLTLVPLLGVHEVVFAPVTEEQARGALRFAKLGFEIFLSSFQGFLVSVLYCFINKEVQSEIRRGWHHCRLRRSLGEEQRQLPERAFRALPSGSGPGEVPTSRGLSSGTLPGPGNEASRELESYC
Put plainly: cAMP production in CHO-K1 cells expressing human GIPR (LANCE cAMP assay). Format: cell-based. Conditions: for Emax: CHO-K1, read-out: % activation of cAMP (maximal stimulation). On the procedure:
CHO—K1 cells expressing human GIPR were obtained from DiscoverX Corporation (Fremont, Calif.). The cells were cultured in Ham's F-12 nutrient media supplemented with 10% foetal bovine serum, 800 μg/ml geneticin, 300 μg/ml hydromycin, 2 mM L-glutamine, and Penicillin-streptomycin (100 units, 100 μg) at 37° C. in a 5% CO2 incubator. The cells were harvested at 90% confluence.
The cells were suspended in Ham's F-12 nutrient media to a concentration of 200,000 cells/ml. The cells were then plated in a 384 well plate at with […] of the suspension added per well. The cells were incubated overnight at 37° C. in a 5% CO2 incubator.
The activity of the compounds was determined by stimulating the CHO—K1 cells with the test compound, and measuring the levels of cAMP produced. The activity of the compounds was compared to the activity of native GIP, as GIP stimulates cAMP production. 6 μl of the test compound in stimulation buffer (990 ml Hank's Balanced Salt solution (HBSS) (1×) (Invitrogen Corp #14025-092), 10 ml Hepes buffer solution (1 mol·L) (Invitrogen Corp 15630-080), 1 g BSA (final 0.1%), and 1 ml IBMX 250 mM stock prepared fresh in DMSO (Sigma-Aldrich 15879)) were added to cells, followed by 6 μl of Alexa Fluor® 647-anti cAMP antibody (Perkin Elmer) in stimulation buffer. […] The well plate was centrifuged for 3 min at 300 rpm, and incubated at room temperature for 45 minutes. 12 μl of detection mixture (biotin cAMP and EUW8044 labeled streptavidin (Eu-SA) in cAMP Detection Buffer (Perkin Elmer)) was added and incubated for 60 min at room temperature.
The levels of cAMP produced were measured according to the detailed protocol outlined in the Perkin Elmer LANCE cAMP Assay Perkin Elmer Lance cAMP Kit manual. The activity of the compounds was compared to the activity of native GIP.
The plates are read on a TRF detection instrument, EnVision® (Perkin Elmer) (excitation at 340 nm and emission at 665 nm). The values of the cAMP signal are obtained from the standard cAMP curve and used to determine the amount of maximal stimulation, and EC50 for stimulating the cAMP signal.
(Changes in cAMP serve as a functional read-out for many G protein-coupled receptors.)

A short description of data set [1]: stability in Hannover Wistar rat plasma. Format: in vitro ADME. Conditions: for stability in rat plasma (in words): acceptance range 75-125%. On the procedure:
(§1) The following study was conducted to assess the stability of the compound of Example 19 in Hannover Wistar rat and human plasma after 4 and 24 hours.
(§2) 2.08 mg of the compound of Example 19 was weighed out and placed in a 4 mL amber vial. To this was added 1.0 mL DMSO. The vial was carefully vortexed to produce a 573 μM stock solution of the compound.
(§3) Hannover Wistar rat plasma and human plasma (anti-coagulant sodium EDTA) were pre-warmed to 37° C. for 30 minutes in a water bath. Rat plasma pH was 7.45 and human plasma pH was 7.47. 1.5 mL microcentrifuge vials were used.
(§4) 8.70 μL of 573 μM stock solution of the compound of Example 19 was added to 491.34 μL of the rat plasma and placed into one vial. 8.74 μL of 573 μM stock solution of the compound of Example 19 was added to 491.34 μL of the human plasma and placed into another vial. The two vials were gently vortexed ensuring proper mixing.
(§5) Six new vials were labeled as follows: rat T0, rat T4, rat T24, human T0, human T4, human T24. To each of these vials, […] of treated plasma was added. The T4 and T24 vials were capped and placed in a 37° C. incubator for 4 and 24 hours, respectively.
(§6) To each of the two T0 vials, 50 µL of Sorensen buffer and 200 μL 1.0% acetic acid in acetonitrile were added. The T0 vials were then capped, vortexed and centrifuged at 10000×g for 10 minutes. Upon completion of centrifugation, 100 μL of the supernatant of each vial was added to a separate well in a 96-well injection block. 200 μL of 0.1% acetic acid in Milli-Q® water (Millipore) was then added to each well.
(§7) The above procedure as written with respect to the T0 vials was repeated for the two T4 vials at the 4 hour timepoint and the T24 vials at the 24 hour timepoint. With each timepoint a fresh T0 sample was prepared, as described above, to ensure there was no sample degradation.
(§8) All samples were analyzed by LC/MS/MS. The resulting chromatographs were processed to obtain peaks areas for each sample. The percent of compound remaining at each timepoint as compared with the amount present in the comparison T0 sample was calculated.

Data set [2] in a line: stability in human plasma. Format: in vitro ADME. On the procedure: as §1, §2, §3, §4, §5, §6, §7, §8

`CC[C@H](C)[C@H](NC(=O)[C@H](CO)NC(=O)[C@H](Cc1ccc(O)cc1)NC(=O)[C@H](CC(=O)O)NC(=O)[C@H](CO)NC(=O)[C@@H](NC(=O)[C@H](Cc1ccccc1)NC(=O)[C@@H](NC(=O)CNC(=O)[C@H](CCC(=O)O)NC(=O)[C@H](C)NC(=O)[C@@H](Cc1ccc(Cl)cc1)NC(C)=O)[C@@H](C)O)[C@@H](C)CC)C(=O)N[C@@H](C)C(=O)N[C@@H](CCSC)C(=O)N[C@@H](CC(=O)O)C(=O)N[C@@H](CCCCN)C(=O)N[C@H](C(=O)N[C@@H](Cc1c[nH]cn1)C(=O)N[C@@H](CCC(N)=O)C(=O)N[C@@H](CCC(N)=O)C(=O)N[C@@H](CC(=O)O)C(=O)N[C@@H](Cc1ccccc1)C(=O)N[C@H](C(=O)N[C@@H](CC(N)=O)C(=O)N[C@@H](Cc1c[nH]c2ccccc12)C(=O)N[C@@H](CC(C)C)C(=O)N[C@@H](CC(C)C)C(=O)N[C@@H](C)C(=O)N[C@@H](CCC(N)=O)C(=O)N[C@@H](CCCCN)C(N)=O)C(C)C)[C@@H](C)CC` [Example 14]: on human GIPR, the concentration giving a half-maximal response (EC50) stood at 0.025 nM and the Emax came out at 106%.

As for `CC[C@H](C)[C@H](NC(=O)[C@H](C)NC(=O)[C@H](CC(=O)O)NC(=O)[C@H](CCSC)NC(=O)[C@H](C)NC(=O)[C@@H](NC(=O)[C@H](CO)NC(=O)[C@H](Cc1ccc(O)cc1)NC(=O)[C@H](CC(=O)O)NC(=O)[C@H](CO)NC(=O)[C@@H](NC(=O)[C@H](Cc1ccccc1)NC(=O)[C@@H](NC(=O)CNC(=O)[C@H](CCC(=O)O)NC(=O)[C@H](C)NC(=O)[C@@H](Cc1ccc(O)cc1)NC(C)=O)[C@@H](C)O)[C@@H](C)CC)[C@@H](C)CC)C(=O)N[C@@H](Cc1c[nH]cn1)C(=O)N[C@@H](CCC(N)=O)C(=O)N[C@@H](CCC(N)=O)C(=O)N[C@@H](CC(=O)O)C(=O)N[C@@H](Cc1ccccc1)C(=O)N[C@H](C(=O)N[C@@H](CC(N)=O)C(=O)N[C@@H](Cc1c[nH]c2ccccc12)C(=O)N[C@@H](CC(C)C)C(=O)N[C@@H](CC(C)C)C(=O)N[C@@H](C)C(=O)N[C@@H](CCC(N)=O)C(=O)N[C@@H](CCCCN)C(N)=O)C(C)C` [Example 19] (Ac-[dY]AEGTFISDYSIAMDAIHQQDFVNWLLAQK-NH2), the “% Remaining 4 hr, Rat” value in data set [1] (10 uM, 37° C., 4 hr, vs T0 sample, LC/MS/MS) was 124.7%. In addition, the results for the “stability in rat plasma (in words)” value in data set [1] (4 hours) and in data set [1] (24 hour timepoint) were “stable” and “slightly below the acceptance range”, respectively. The fraction remaining at 24 h, 10 µM turned out to be 72.7% in data set [1] (Hannover Wistar, pH 7.45, 10 uM, 37° C., 24 hr, vs T0 sample, LC/MS/MS) and 75.9% in data set [2] (pH 7.47, 10 uM, 37° C., 24 hr, vs T0 sample, LC/MS/MS). Moreover, the “stability in human plasma (in words)” value in data set [2] (both the 4 hour and the 24 hour timepoints) is listed as “stable”. The share remaining at 4 h, 10 µM in data set [2] (pH 7.47, 10 uM, 37° C., 4 hr, vs T0 sample, LC/MS/MS) was found to be 93.6%. Besides, on human GIPR, the Emax was determined as 100%.

For `CC[C@H](C)[C@H](NC(=O)[C@H](CO)NC(=O)[C@H](Cc1ccc(O)cc1)NC(=O)[C@H](CC(=O)O)NC(=O)[C@H](CO)NC(=O)[C@@H](NC(=O)[C@H](Cc1ccccc1)NC(=O)[C@@H](NC(=O)CNC(=O)[C@H](CCC(=O)O)NC(=O)[C@H](C)NC(=O)CCc1ccc(O)cc1)[C@@H](C)O)[C@@H](C)CC)C(=O)N[C@@H](C)C(=O)N[C@@H](CCSC)C(=O)N[C@@H](CC(=O)O)C(=O)N[C@@H](CCCCN)C(=O)N[C@H](C(=O)N[C@@H](Cc1c[nH]cn1)C(=O)N[C@@H](CCC(N)=O)C(=O)N[C@@H](CCC(N)=O)C(=O)N[C@@H](CC(=O)O)C(=O)N[C@@H](Cc1ccccc1)C(=O)N[C@H](C(=O)N[C@@H](CC(N)=O)C(=O)N[C@@H](Cc1c[nH]c2ccccc12)C(=O)N[C@@H](CC(C)C)C(=O)N[C@@H](CC(C)C)C(=O)N[C@@H](C)C(=O)N[C@@H](CCC(N)=O)C(=O)N[C@@H](CCCCN)C(N)=O)C(C)C)[C@@H](C)CC` [Example 7], at human GIPR, the response was half-maximal at 0.095 nM (EC50) and the Emax came out at 103%.

As a reminder, the EC50 is the concentration needed to bring the measured effect to its halfway point. Read a high EC50 as weaker potency. One may read the share remaining as the share of the starting amount still present when the sample was taken. High values mean less turnover, low ones more turnover.
